The values below come from ChEMBL document CHEMBL5150066, “Synthesis of estrone selenocyanate Compounds, anti-tumor activity evaluation and Structure-activity relationship analysis” (Bioorg Med Chem, 2022).

The subject of data set [1] is SK-OV-3. Description: Induction of apoptosis in human SK-OV-3 cells assessed as necrotic cells at 15 umol/L incubated for 24 hrs by Annexin V-FITC/PI staining based flow cytometric analysis (reference value: 0.00 %). Type of data set: functional. As to conditions: dose 15 µmol/L, at 15 µM.
Data set [2] concerns SK-OV-3. Description: Induction of apoptosis in human SK-OV-3 cells assessed as necrotic cells at 5 umol/L incubated for 24 hrs by Annexin V-FITC/PI staining based flow cytometric analysis (reference value: 0.00 %). Type of data set: functional. As to conditions: dose 5 µmol/L, at 5 µM.
Data set [3] has as its system SK-OV-3. Description: Induction of apoptosis in human SK-OV-3 cells assessed as necrotic cells at 20 umol/L incubated for 24 hrs by Annexin V-FITC/PI staining based flow cytometric analysis (reference value: 0.00 %). As to conditions: dose 20 µmol/L, at 20 µM. It counts as functional. On the technique in general: Flow cytometry measures light scatter and fluorescence of single cells or particles in a stream.

For data set [4], the system named is SK-OV-3. Description: Induction of apoptosis in human SK-OV-3 cells assessed as early apoptotic cells at 20 umol/L incubated for 24 hrs by Annexin V-FITC/PI staining based flow cytometric analysis (reference value: 4.66 %). Type of data set: functional. As to conditions: dose 20 µmol/L, at 20 µM.
For data set [5], the system named is SK-OV-3. Description: Induction of apoptosis in human SK-OV-3 cells assessed as late apoptotic cells at 25 umol/L incubated for 24 hrs by Annexin V-FITC/PI staining based flow cytometric analysis (reference value: 5.51 %). Type of data set: functional. As to conditions: dose 25 µmol/L, at 25 µM.
Data set [6] deals with SK-OV-3. Description: Induction of apoptosis in human SK-OV-3 cells assessed as late apoptotic cells at 5 umol/L incubated for 24 hrs by Annexin V-FITC/PI staining based flow cytometric analysis (reference value: 5.51 %). It counts as functional. As to conditions: dose 5 µmol/L, at 5 µM.
The test system of data set [7] is SK-OV-3. Description: Induction of apoptosis in human SK-OV-3 cells assessed as late apoptotic cells at 15 umol/L incubated for 24 hrs by Annexin V-FITC/PI staining based flow cytometric analysis (reference value: 5.51 %). It counts as functional. As to conditions: dose 15 µmol/L, at 15 µM.
In data set [8] the test system is SK-OV-3. Description: Induction of apoptosis in human SK-OV-3 cells assessed as viable cells at 25 umol/L incubated for 24 hrs by Annexin V-FITC/PI staining based flow cytometric analysis (reference value: 89.83 %). It counts as functional. As to conditions: SK-OV-3, 24 h, dose 25 µmol/L, read-out: Activity.
Data set [9] has as its system SK-OV-3. Description: Induction of apoptosis in human SK-OV-3 cells assessed as late apoptotic cells at 10 umol/L incubated for 24 hrs by Annexin V-FITC/PI staining based flow cytometric analysis (reference value: 5.51 %). It counts as functional. As to conditions: dose 10 µmol/L, at 10 µM.
Another data set deals with HepG2. Description: Antiproliferative activity against human HepG2 cells assessed as inhibition of cell growth incubated for 72 hrs by MTT assay. Type of data set: functional, cell-based. As to conditions: HepG2, 72 h. For orientation: Tetrazolium dyes change colour on reduction, which living cells bring about.
For data set [10], the system named is SK-OV-3. Description: Induction of apoptosis in human SK-OV-3 cells assessed as viable cells at 15 umol/L incubated for 24 hrs by Annexin V-FITC/PI staining based flow cytometric analysis (reference value: 89.83 %). Type of data set: functional. As to conditions: SK-OV-3, 24 h, dose 15 µmol/L, read-out: Activity.
Data set [11] deals with SK-OV-3. Description: Induction of apoptosis in human SK-OV-3 cells assessed as viable cells at 20 umol/L incubated for 24 hrs by Annexin V-FITC/PI staining based flow cytometric analysis (reference value: 89.83 %). As to conditions: SK-OV-3, 24 h, dose 20 µmol/L, read-out: Activity. It counts as functional.
Data set [12] relates to SK-OV-3. Description: Induction of apoptosis in human SK-OV-3 cells assessed as necrotic cells at 25 umol/L incubated for 24 hrs by Annexin V-FITC/PI staining based flow cytometric analysis (reference value: 0.00 %). As to conditions: dose 25 µmol/L, at 25 µM. It counts as functional.
In data set [13] the test system is SK-OV-3. Description: Induction of apoptosis in human SK-OV-3 cells assessed as late apoptotic cells at 20 umol/L incubated for 24 hrs by Annexin V-FITC/PI staining based flow cytometric analysis (reference value: 5.51 %). It counts as functional. As to conditions: dose 20 µmol/L, at 20 µM.
The subject of data set [14] is HeLa. Description: Antiproliferative activity against human HeLa cells assessed as inhibition of cell growth incubated for 72 hrs by MTT assay. It counts as functional, cell-based.
For data set [15], the system named is SK-OV-3. Description: Induction of apoptosis in human SK-OV-3 cells assessed as early apoptotic cells at 10 umol/L incubated for 24 hrs by Annexin V-FITC/PI staining based flow cytometric analysis (reference value: 4.66 %). Type of data set: functional. As to conditions: dose 10 µmol/L, at 10 µM.
For data set [16], the system named is SK-OV-3. Description: Antiproliferative activity against human SK-OV-3 cells assessed as inhibition of cell growth incubated for 72 hrs by MTT assay. Type of data set: functional, cell-based. As to conditions: SK-OV-3, 72 h.
Data set [17] relates to SK-OV-3. Description: Induction of apoptosis in human SK-OV-3 cells assessed as necrotic cells at 10 umol/L incubated for 24 hrs by Annexin V-FITC/PI staining based flow cytometric analysis (reference value: 0.00 %). Type of data set: functional. As to conditions: dose 10 µmol/L, at 10 µM.
In data set [18] the test system is SK-OV-3. Description: Induction of apoptosis in human SK-OV-3 cells assessed as early apoptotic cells at 5 umol/L incubated for 24 hrs by Annexin V-FITC/PI staining based flow cytometric analysis (reference value: 4.66 %). Type of data set: functional. As to conditions: dose 5 µmol/L, at 5 µM.
A short description of data set [19]: Cytotoxicity against HEK293T cells assessed as inhibition of cell growth incubated for 72 hrs by MTT assay. As to conditions: human. Type of data set: toxicity, cell-based, HEK-293T.
A further data set deals with MCF7. Description: Antiproliferative activity against human MCF7 cells assessed as inhibition of cell growth incubated for 72 hrs by MTT assay. Type of data set: functional, cell-based. As to conditions: MCF7, 72 h.
The subject of another data set is T47D. Description: Antiproliferative activity against human T47D cells assessed as inhibition of cell growth incubated for 72 hrs by MTT assay. Type of data set: functional, cell-based.
Data set [20] has as its system SK-OV-3. Description: Induction of apoptosis in human SK-OV-3 cells assessed as viable cells at 10 umol/L incubated for 24 hrs by Annexin V-FITC/PI staining based flow cytometric analysis (reference value: 89.83 %). Type of data set: functional. As to conditions: SK-OV-3, 24 h, dose 10 µmol/L, read-out: Activity.
Data set [21] deals with SK-OV-3. Description: Induction of apoptosis in human SK-OV-3 cells assessed as viable cells at 5 umol/L incubated for 24 hrs by Annexin V-FITC/PI staining based flow cytometric analysis (reference value: 89.83 %). As to conditions: SK-OV-3, 24 h, dose 5 µmol/L, read-out: Activity. Type of data set: functional.
Data set [22] deals with SK-OV-3. Description: Induction of apoptosis in human SK-OV-3 cells assessed as early apoptotic cells at 25 umol/L incubated for 24 hrs by Annexin V-FITC/PI staining based flow cytometric analysis (reference value: 4.66 %). It counts as functional. As to conditions: dose 25 µmol/L, at 25 µM.
For data set [23], the system named is SK-OV-3. Description: Induction of apoptosis in human SK-OV-3 cells assessed as early apoptotic cells at 15 umol/L incubated for 24 hrs by Annexin V-FITC/PI staining based flow cytometric analysis (reference value: 4.66 %). It counts as functional. As to conditions: dose 15 µmol/L, at 15 µM.
The test system of data set [24] is HeLa. Description: Antitumor activity against human HeLa cells xenografted in wildtype zebrafish AB yolk sac assessed as tumor fluorescence area at 15 uM measured 48 hrs post injection by fluorescence based assay. It counts as functional. For orientation: A xenograft is tissue or cells of one species grown in another, often human tumour cells in immunodeficient mice.

Data set [25] has as its system HeLa. Description: Antitumor activity against human HeLa cells xenografted in wildtype zebrafish AB yolk sac assessed as tumor fluorescence area at 15 uM measured immediately by fluorescence based assay. Type of data set: functional.
Data set [26] deals with HeLa. Description: Antitumor activity against human HeLa cells xenografted in wildtype zebrafish AB yolk sac assessed as tumor fluorescence intensity at 15 uM measured 48 hrs post injection by fluorescence based assay. Type of data set: functional.
A short description of data set [27]: Selectivity index, ratio of IC50 for cytotoxicity against HEK293T cells to IC50 for antiproliferative activity against human HeLa cells. Type of data set: toxicity, cell-based. As to conditions: HEK293T cells versus HeLa cells, read-out: Ratio IC50.
In data set [28] the test system is HeLa. Description: Antitumor activity against human HeLa cells xenografted in wildtype zebrafish AB yolk sac assessed as tumor fluorescence intensity at 15 uM measured immediately by fluorescence based assay. Type of data set: functional.

Take `C[C@]12CC[C@@H]3c4cc(NC(=O)CCCCCC[Se]C#N)c(O)cc4CC[C@H]3[C@@H]1CCC2=O`: the Activity in the data set with SK-OV-3 [1] is reported as 0.2%; with SK-OV-3 [2], 0.04%; in the data set on SK-OV-3 [3], 0.17%; with SK-OV-3 [4] it was 29.04%; in the data set on SK-OV-3 [5], 50.48%; in the data set with SK-OV-3 [6], 28.34%. Further, the Activity in the data set on SK-OV-3 [7] stood at 51.6%; with SK-OV-3 [9] it was 36.97%; in the data set on SK-OV-3 [12], 0.33%; in the data set with SK-OV-3 [13] it was 58.26%; with SK-OV-3 [15], 32.38%; in the data set with SK-OV-3 [17], 0.45%. Besides, the Activity in the data set with SK-OV-3 [18] came to 27.75%; in the data set on SK-OV-3 [22], 42.27%; with SK-OV-3 [23], 31.88%. The viability at 25 µM in the data set with SK-OV-3 [8] worked out at 6.93%. In addition, the IC50 in the data set with HepG2 was 10.1 µM; in the data set with HeLa [14] it was 10.2 µM; in the data set on SK-OV-3 [16], 8.2 µM; in the data set on MCF7, 10.1 µM; in the data set with T47D, 24.9 µM. The viability at 15 µM with SK-OV-3 [10] is 16.3%. Moreover, in the data set with SK-OV-3 [11], the viability at 20 µM stood at 12.5%. In [19], the IC50 at 72 h is 14.4 µM. Also, the viability at 10 µM with SK-OV-3 [20] was found to be 30.2%. Besides, the viability at 5 µM in the data set on SK-OV-3 [21] was determined as 43.9%.

For `C[C@]12CC[C@@H]3c4ccc(OCCCCC[Se]C#N)cc4CC[C@H]3[C@@H]1CCC2=O`, the Activity in the data set with HeLa [24] was determined as 12391.83 pixel; in the data set on HeLa [25], 79354.17 pixel. The IC50 in the data set on HepG2 is over 100 µM; in the data set on HeLa [14], 9.5 µM; in the data set with SK-OV-3 [16] it was 31 µM; in the data set on MCF7, 38.3 µM; with T47D, 68.2 µM. Further, the Flu intensity in the data set on HeLa [26] was found to be 5328.6; with HeLa [28], 43169.53. Moreover, in data set [19], the IC50 at 72 h was 77.2 µM. For the same compound, the selectivity ratio in data set [27] was 8.1.

By IC50 is commonly meant the concentration needed to halve the response being measured.
